Measurements published in paper PMC8154566, “Scaffold-Hopping Strategy on a Series of Proteasome Inhibitors Led to a Preclinical Candidate for the Treatment of Visceral Leishmaniasis” (Journal of Medicinal Chemistry, 2021).
Converted amounts (≈) assume the structure as drawn. Read-outs that look alike come from different tables or passages of the source.

Assays:
THP-1 cells = assay: THP-1 host cell read-out of the INMAC assay; format: cell-based; settings: for EC50 / IC50: Homo sapiens
Description: (§1) Intramacrophage L. donovani Assay. This assay was conducted as previously described, except for […]

[1] = Kinetic aqueous solubility by CLND; format: physicochemical
Description: We had successfully used these criteria in the hit to lead stage to identify compounds for in vivo proof-of-concept studies in another program, which subsequently led to the identification of preclinical candidate DDD853651/GSK3186899 active against CRK12.[7] […] A pharmacokinetic (PK) study was thus performed, dosed at 10 mg/kg po and 3 mg/kg iv. […] With the limited knowledge of the PK/PD drivers for the treatment of VL, we considered this to be a suitable profile for the progression of 4 into a previously reported mouse efficacy model of VL,[6],[7],[17],[18] where it was dosed twice daily at 50 mg/kg ip in order to further maximize exposure and give the best chance of achieving proof-of-concept.
(§2) Intramacrophage L. donovani Assay. This assay was conducted as previously described, except for compound exposure time, which was 96 h instead of 72 h.4
(§3) Intrinsic Clearance. This assay was conducted as previously described.5 Aqueous Solubility. This assay was conducted as previously described.6
(§4) FaSSIF Solublity. This assay was conducted as previously described.5,7
(§5) In vivo Mouse Efficacy Studies. In vivo studies were carried out as previously described, with minor modifications.7 Briefly: Control drug used was Miltefosine (30 mg/kg orally, twice daily for 5 days), vehicle used was 10% (v/v) dimethyl sulfoxide (DMSO), 40% polyethylene glycol 400, and 50% deionized water (10 Ml/kg orally, twice daily for 5 days) and mice were treated with test compound intraperitoneally (50 mg/kg twice daily for 5 days). 5
(§6) All regulated procedures on living animals were carried out under the authority of a project license issued by the Home Office under the Animals (Scientific Procedures) Act 1986, as amended in 2012 (and in compliance with EU Directive EU/2010/63). Infected animals had access to food and water ad libitum and were housed under a 12 hour light/dark photoperiod. Animals used in these experiments were female NMRI and Balb/c mice (Harlan, UK).
(§7) Test compound DDD01008714 was dosed orally (P.O.) at 10 mg free base/kg (dose volume 10 mL/kg; dose vehicle: 10% (vol/vol) dimethyl sulfoxide (DMSO), 40% polyethylene glycol 400 (PEG400) and 50% deionized water) to female NMRI mice (n = 3) or intravenously (I.V.) at 3 mg free base/kg (dose volume 5 mL/kg; dose vehicle: 10% (vol/vol) dimethyl sulfoxide (DMSO) and 90% Saline) to female Balb/c mice (n = 3). Blood samples (10 μL) where taken from the tail vein of […]

[2] = FaSSIF (fasted state simulated intestinal fluid) solubility; format: physicochemical
Description: as §2, §3, §4, §5, §6, §7

L. donovani amastigotes = assay: INMAC assay: intramacrophage L. donovani in differentiated THP-1 cells; format: cell-based, Leishmania donovani; settings: for loss of potency: INMAC, relative to compound 4; for EC50 / IC50: Leishmania donovani; for IC50: THP-1, read-out: LdInMac pIC50 (converted)
Description: as §1

[3] = Mouse liver microsomal intrinsic clearance; format: in vitro ADME; settings: for Mouse CLi: mouse liver microsomes; for Cli (mouse, ml/min/g): supplementary csv
Description: as §2, §3, §4, §5, §6, §7

[4] = THP-1, Table 2, read-out: THP-1 (pEC50) (converted)
[5] = THP-1, supplementary csv, read-out: THP1 pIC50 (converted)
[6] = Table 2, kinetic, CLND, read-out: Aq. solubility
[7] = supplementary csv, read-out: Aqueous Solubility
[8] = THP-1, Table 2, at least three replicates, SD ≤0.4, read-out: INMAC (pEC50) (converted)
[9] = THP-1, Table 5, read-out: THP-1 pEC50 (converted)
[10] = THP-1, Table 5, at least three replicates, SD ≤0.4, read-out: INMAC pEC50 (converted)
[11] = Table 5, at least three replicates, SD ≤0.4
[12] = Table 5, kinetic, CLND, read-out: Aq. solubility
[13] = THP-1, Table 6, read-out: THP-1 pEC50 (converted)
[14] = THP-1, Table 6, at least three replicates, SD ≤0.4, read-out: INMAC pEC50 (converted)

Compound	EC50 (THP-1 cells; [4])	IC50 (THP-1 cells; [5])	loss of potency (L. donovani amastigotes)	EC50 (L. donovani amastigotes; [8])	Mouse CLi ([3]; Table 2)	Cli (mouse, ml/min/g) [3]	IC50 (L. donovani amastigotes)	INMAC pEC50 (L. donovani amastigotes; [11])	Mouse CLi ([3]; Table 5)	other results
O=C(Nc1cc(-c2cn3cc(N4CCOCC4)cnc3n2)ccc1F)N1CCCC1 [Compound 5, N-(2-Fluoro-5-(6-morpholinoimidazo[1,2-a]pyrimidin-2-yl)phenyl)pyrrolidine-1-carboxamide]	> 50.1 µM	> 50.1 µM	> 10 fold	15.8 µM	0.9 mL/min/g	0.9 mL/min/g				solubility [1, 6]: 256 µM (≈ 105 µg/mL); solubility [1, 7]: 260 µM (≈ 107 µg/mL); solubility at 4 h ([2]; pH 6.5, Table 2): 51 µM (≈ 20.9 µg/mL)
O=C(Nc1cccc(-c2cn3cc(N4CCOCC4)cnc3n2)c1)N1CCCC1 [Compound 6, N-(3-(6-Morpholinoimidazo[1,2-a]pyrimidin-2-yl)phenyl)pyrrolidine-1-carboxamide]	> 50.1 µM	> 50.1 µM	> 10 fold	12.6 µM	0.8 mL/min/g	0.8 mL/min/g				
COc1ccc(NC(=O)N2CCCC2)cc1-c1cn2cc(N3CCOCC3)cnc2n1 [Compound 7, N-(4-Methoxy-3-(6-morpholinoimidazo[1,2-a]pyrimidin-2-yl)phenyl)pyrrolidine-1-carboxamide]	> 50.1 µM	> 50.1 µM	> 10 fold	> 50.1 µM	<0.5 mL/min/g	<0.5 mL/min/g	> 50.1 µM			solubility [1, 6]: ≥ 425 µM; solubility [1, 7]: ≥ 430 µM; solubility at 4 h ([2]; pH 6.5, Table 2): 83 µM (≈ 35.1 µg/mL)
COc1ccc(-c2cn3cc(N4CCOCC4)cnc3n2)cc1NC(=O)N1CCCC1 [Compound 8, N-(2-Methoxy-5-(6-morpholinoimidazo[1,2-a]pyrimidin-2-yl)phenyl)pyrrolidine-1-carboxamide]	> 50.1 µM	> 50.1 µM	> 10 fold	20 µM	1.4 mL/min/g	1.4 mL/min/g				solubility [1, 6]: ≥ 380 µM; solubility ([2]; Table 2): > 100 µM; solubility at 4 h ([2]; pH 6.5, Table 2): 265 µM (≈ 112 µg/mL); solubility ([2]; supplementary csv): 270 µM (≈ 114 µg/mL)
O=C(Nc1cccc(-c2nc3ccccc3o2)c1)c1ccco1 [Compound 14]		> 50.1 µM				50 mL/min/g	> 50.1 µM			EC50 (THP-1 cells; THP-1, Table 3, read-out: THP-1 (pEC50) (converted)): > 50.1 µM; EC50 (L. donovani amastigotes; THP-1, Table 3, at least three replicates, SD ≤0.4, read-out: INMAC (pEC50) (converted)): > 50.1 µM; INMAC pEC50 (L. donovani amastigotes; Table 3, at least three replicates, SD ≤0.4): no activity; Mouse CLi ([3]; Table 3): 50 mL/min/g
O=C(Nc1cccc(-c2cc3ncc(-c4ccccc4)cn3n2)c1)N1CCCC1 [Compound 16, N-(3-(6-Phenylpyrazolo[1,5-a]pyrimidin-2-yl)phenyl)pyrrolidine-1-carboxamide]		> 50.1 µM				3.6 mL/min/g	> 50.1 µM	inactive	3.6 mL/min/g	EC50 (THP-1 cells; [9]): > 50.1 µM; EC50 (L. donovani amastigotes; [10]): > 50.1 µM
O=C(Nc1cccc(-c2cc3cc(-c4ccccc4)cnc3[nH]2)c1)N1CCCC1 [Compound 17, N-(3-(5-Phenyl-1H-pyrrolo[2,3-b]pyridin-2-yl)phenyl)pyrrolidine-1-carboxamide]		> 50.1 µM				1.7 mL/min/g	> 50.1 µM	inactive	1.7 mL/min/g	EC50 (THP-1 cells; THP-1, read-out: THP-1 pEC50 (converted)): > 50.1 µM; solubility [1, 12]: 3 µM (≈ 1.15 µg/mL); EC50 (L. donovani amastigotes; THP-1, read-out: INMAC pEC50 (converted)): > 50.1 µM
O=C(Nc1ccc(F)c(-c2cc3nc(N4CCOCC4)cnc3[nH]2)c1)N1CCCC1 [Compound 18, N-(4-Fluoro-3-(2-morpholino-5H-pyrrolo[2,3-b]pyrazin-6-yl)phenyl)pyrrolidine-1-carboxamide]							> 50.1 µM	inactive	10 mL/min/g	IC50 (THP-1 cells; THP-1, read-out: THP1 pIC50 (converted)): > 50.1 µM; EC50 (THP-1 cells; [9]): > 50.1 µM; solubility [1, 12]: 135 µM (≈ 55.4 µg/mL); solubility [1, 7]: 10 µM (≈ 4.1 µg/mL); EC50 (L. donovani amastigotes; [10]): > 50.1 µM
Cn1c(-c2cc(NC(=O)N3CCCC3)ccc2F)cc2cc(N3CCOCC3)cnc21 [Compound 19, N-[4-Fluoro-3-(1-methyl-5-morpholino-pyrrolo[2,3-b]pyridin-2-yl)phenyl]pyrrolidine-1-carboxamide]		> 50.1 µM				2.4 mL/min/g	> 50.1 µM	inactive	2.4 mL/min/g	EC50 (THP-1 cells; [9]): > 50.1 µM; EC50 (L. donovani amastigotes; [10]): > 50.1 µM
CN1CCOCC1c1cnc2nc(-c3cc(NC(=O)N4CCCC4)ccc3F)ccn12 (stereo not shown) [Compound 33, N-(4-Fluoro-3-(3-(4-methylmorpholin-3-yl)imidazo[1,2-a]pyrimidin-7-yl)phenyl)pyrrolidine-1-carboxamide]		50.1 µM				3.8 mL/min/g				EC50 (THP-1 cells; [13]): 50.1 µM; solubility at 4 h ([2]; pH 6.5, Table 6): 2340 µM (≈ 994 µg/mL); solubility ([2]; supplementary csv): > 1000 µM; EC50 (L. donovani amastigotes; [14]): 5.01 µM; Mouse CLi ([3]; Table 6): 3.8 mL/min/g
O=C1CN(c2cnc3nc(-c4cc(NC(=O)N5CCCC5)ccc4F)ccn23)CCN1 [Compound 37, N-(4-Fluoro-3-(3-(3-oxopiperazin-1-yl)imidazo[1,2-a]pyrimidin-7-yl)phenyl)pyrrolidine-1-carboxamide]		> 50.1 µM				1.1 mL/min/g	> 50.1 µM			EC50 (THP-1 cells; [13]): > 50.1 µM; solubility at 4 h ([2]; pH 6.5, Table 6): 815 µM (≈ 345 µg/mL); solubility ([2]; supplementary csv): 820 µM (≈ 347 µg/mL); EC50 (L. donovani amastigotes; [14]): > 50.1 µM; Mouse CLi ([3]; Table 6): 1.1 mL/min/g
N-(3-(7-Phenylimidazo[1,2-b][1,2,4]triazin-3-yl)phenyl)pyrrolidine-1-carboxamide [Compound 27]						3.3 mL/min/g		5.9	3.3 mL/min/g	THP-1 pEC50 (THP-1 cells; Table 5): <4.3; THP1 pIC50 (THP-1 cells; supplementary csv): <4.3; solubility ([2]; Table 5): 3.0 µM; LdInMac pIC50 (L. donovani amastigotes; supplementary csv): 5.9
